Source: paper PMC8485799, “Synthesis and Antiprotozoal Profile of 3,4,5‐Trisubstituted Isoxazoles” (ChemistryOpen, 2021)
Where two headings read alike, the source gives them in different places. One block for each compound: values may come before it.

Assays:
[1] = system: both forms of L. amazonensis; design: method as in PMID 27597410; conditions: cited from earlier work
macrophages (J774 A1) = experiment: Cytotoxicity assay in mammalian cells (MTT), macrophages, 48 h; type: cell-based
Procedure, shortened: (§1)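 Cells pre-grown 24 h to confluence (L929 2.5×10^5, J774 A1 5×10^5 cells.mL^−1), then exposed to compound dilutions at 37 °C, 5 % CO2: L929 in DMEM/10 % FBS for 72 h, J774 A1 in RPMI‐1640/10 % FBS for 48 h. MTT (2 mg.mL^−1, 4 h), formazan read at […]; CC50 from viability versus untreated controls.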

fibroblast line (L929) = experiment: Cytotoxicity assay in mammalian cells (MTT), fibroblasts, 72 h; type: cell-based
Procedure, shortened: as §1

[2] = system: epimastigote forms of Trypanosoma cruzi (Y strain); experiment: Antiproliferative assay (XTT), epimastigote forms, 96 h; type: cell-based; conditions: for IC50: epimastigote form, 96 h, XTT, read-out: T. cruzi IC50
Procedure, shortened: (§2)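 Parasites at 1×10^6 mL^−1 with compound (DMSO stock diluted in medium): L. amazonensis promastigotes in Warren medium + 10% FBS at 25 °C for 72 h, T. cruzi epimastigotes in LIT medium + 10% FBS at 28 °C for 96 h. Viability by XTT/PMS for 4 h, absorbance at 450 nm. IC50 from % viable versus control.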

[3] = system: promastigote forms of Leishmania amazonensis (WHOM/BR/75/JOSEFA strain); experiment: Antiproliferative assay (XTT), promastigote forms, 72 h; type: cell-based; conditions: for IC50: promastigote form, 72 h, XTT, read-out: L. amazonensis IC50
Procedure, shortened: as §2

[4] = Cytotoxicity assay in mammalian cells (MTT), macrophages, 48 h; type: cell-based; conditions: mouse, J774 A1 macrophages, pH 7.2; 50 % inhibition of macrophages growth, 48 h, MTT
Procedure, shortened: as §1

[5] = Cytotoxicity assay in mammalian cells (MTT), fibroblasts, 72 h; type: cell-based; conditions: mouse, L929 fibroblast cells, pH 7.2; 50 % inhibition of fibroblast growth, 72 h, MTT
Procedure, shortened: as §1

Compound: O=C(N/N=C/c1ccc(-c2cccs2)s1)c1nn(-c2ccccc2)c(=O)c2c1cnn2-c1ccccc1 [V]
- Activity against both forms of L. amazonensis [1]: good activity values

Compound: O=C(N/N=C/c1cccs1)c1nn(-c2ccccc2)c(=O)c2c1cnn2-c1ccccc1 [IV]
- Activity against both forms of L. amazonensis [1]: good activity values

- IC50 [2]: 54.2 ± 3 µM
Compound: CCOC(=O)c1noc(-c2ccc([N+](=O)[O-])cc2)c1CNc1ccccc1 [2 aa, 3‐Carboxyethyl‐4‐(phenyl)aminomethyl‐5‐(4‐nitrophenyl)isoxazole]
- CC50 (macrophages (J774 A1)): 202 ± 6.5 µM
- CC50 (fibroblast line (L929)): 270 ± 8.9 µM
- IC50 [3]: 34.8 ± 1.7 µM

- melting point: 175.7 to 176.4 °C
- IC50 ([2]; Trypanosoma cruzi): 97.3 ± 3.6 µM
Compound: O=C(N/N=C/c1ccccn1)c1noc(-c2ccc(Cl)cc2)c1CNc1ccc(Cl)cc1 [5 db]
- CC50 at 48 h [4]: 198 ± 4.6 µM
- CC50 at 72 h [5]: 203 ± 3.1 µM
- SIT-F, selectivity index (Fibroblast CC50/T. cruzi IC50) ([2]; fibroblast vs epimastigote): 2.08
- SIT-M, selectivity index (Macrophages CC50/T. cruzi IC50) ([2]; macrophages vs epimastigote): 2.04
- IC50 ([3]; Leishmania amazonensis): 87.9 ± 2 µM
- SIL-F, selectivity index (Fibroblast CC50/L. amazonensis IC50) ([3]; fibroblast vs promastigote): 2.30
- SIL-M, selectivity index (Macrophages CC50/L. amazonensis IC50) ([3]; macrophages vs promastigote): 2.26
